Holding throughout (type): cell-based
For one assay, the system named is MOLT-4 cells. As to the kind of experiment: CTG (CellTiter-Glo) cell viability assay, MOLT-4. Particulars: Homo sapiens, MOLT-4, 72 h, 3 day incubation, read-out: CTG Cell Viability Assay - MOLT-4 3 day: Average external-IC50. The method, then:
Compound-mediated viability effect on MOLT-4 and Caki-2 was quantitatively determined using the CellTiter-Glo® Luminescent Cell Viability Assay kit from Promega (Catalog number G7570) following manufacturer's recommended procedures. Briefly, MOLT-4 and Caki-2 cells were seeded into 384 well plates (Grenier Bio-One, Catalog number 781080) with a density of 10,000 cells per well. Compounds were then added to the assay plate with final top concentration of 10 μM and 1:3 dilution series with total of 9 doses. The final DMSO concentration is normalized to 0.2%. The assay plates were incubated at 37° C., for 3 days under 5% CO2. Then the assay plate was equilibrated at room temperature for 10 minutes. To determine cell viability, 30 uL CellTiter Glo reagent was added to each well and the assay plate was centrifuged at 1000 rpm for 30 second, incubated at room temperature for 10 min, and analyzed by detecting the luminescence using a multimode plate reader (EnVision 2105, PerkinElmer). The data was then analyzed by software Prism 7.0 from GraphPad and the dose response curves are fit using a three-parameter logistic equation to calculate IC50.
The letter codes for MOLT-4 IC50 include: A (<0.1 μM); B (0.1-1.0 μM); C (>1.0-3.0 μM); and D (>3.0 μM). The letter codes for Caki-2 IC50 include: A (<0.1 μM); B (0.1-1.0 μM); C (>1.0-10.0 μM); and D (>10.0 μM).
(In general: In ATP-based viability assays light output follows the ATP content of the culture.)

Assay [1] concerns the target T1, BCL-XL (Homo sapiens, UniProt Q07817).
T1 construct: endogenous in cells; host or cells: MOLT-4
As to the kind of experiment: BCL-XL degradation assay, western blot in MOLT-4 cells, 16 h. The following applies: western blot, MOLT-4 cells, 16 h; for Dmax: read-out: Bcl-xL WB in MOLT-4 degradation 16 h: Average Dmax %; for DC50: read-out: Bcl-xL WB in MOLT-4 degradation 16 h: Mean external-Abs DC50. The gist of the method: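 MOLT-4 cells treated with compounds at 0.02-10 μM final for 16 hr at 37° C; lysates analysed by western blot with anti-BCL-xL, beta-actin and GAPDH loading controls, infrared imaging and densitometry; DC50 and Dmax % reported as letter codes.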
A general note: Immunoblotting shows a protein as a band on a membrane.

In assay [2] the target is T1, BCL-XL. As to the kind of experiment: Bcl-xL ELISA degradation in MOLT-4 cells, 6 h. Particulars: for DC50: read-out: Bcl-xL ELISA in MOLT-4 degradation 6 h: Mean external-Abs DC50. The method, then:
The letter codes for BCL-XL DC50 include: A (<0.01 μM); B (0.01-0.1 μM); C (>[…]); D (>0.5-1.0 μM); and E (>1.0 μM). The letter codes for Dmax % include A (>75%); B (50 to 75%); C (<50%).
A general note: In an ELISA, binding on a coated surface is turned into a signal by an enzyme label.

Some results are limits rather than exact numbers.

T1 sequence (Q07817 whole entry): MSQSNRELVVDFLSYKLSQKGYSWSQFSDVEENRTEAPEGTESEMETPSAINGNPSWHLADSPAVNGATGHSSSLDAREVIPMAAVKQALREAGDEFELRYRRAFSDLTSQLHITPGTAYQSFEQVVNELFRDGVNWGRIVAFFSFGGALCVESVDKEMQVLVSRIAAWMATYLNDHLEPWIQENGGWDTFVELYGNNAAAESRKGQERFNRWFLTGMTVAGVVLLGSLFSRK

Take `Cc1ncsc1-c1ccc([C@H](C)NC(=O)[C@@H]2C[C@@H](O)CC2C(=O)[C@@H](NC(=O)CCCC(=O)N2CCN(C(=O)COC3(Cn4cc(-c5ccc(N6CCc7cccc(C(=O)Nc8nc9ccccc9s8)c7C6)nc5C(=O)O)cn4)CCCCC3)CC2)C(C)(C)C)cc1` (stereo partly shown) [I-149]: the IC50 (in general, the concentration that inhibits the measured activity by half) in the assay on MOLT-4 cells is over 3 µM.
Same read-out and setting: then `Cc1ncsc1-c1ccc([C@H](C)NC(=O)[C@@H]2C[C@@H](O)CN2C(=O)[C@H](NC(=O)CCCCCCCS(=O)(=O)NC(=O)c2nc(N3CCc4cccc(C(=O)Nc5nc6ccccc6s5)c4C3)ccc2-c2cnn(CC3CCOCC3)c2C)C(C)(C)C)cc1` [I-166], with 0.1 to 1 µM.
With `Cc1ncsc1-c1ccc([C@H](C)NC(=O)[C@@H]2C[C@@H](O)CN2C(=O)C(c2cc(OC3CN(c4ccc(S(=O)(=O)NC(=O)c5nc(N6CCc7cccc(C(=O)Nc8nc9ccccc9s8)c7C6)ccc5-c5cnn(CC6CCCCC6)c5C)cc4)C3)no2)C(C)C)cc1` (stereo partly shown) [I-230], on BCL-XL [1], the greatest degradation seen (Dmax) (commonly the largest share of the target that was removed) was over 75% and the DC50 (as a rule, the midpoint of the concentration-degradation curve) was under 0.01 µM. For the same compound, at BCL-XL [2], the Dmax is over 75% and the DC50 fell in the range of 0.01 to 0.1 µM.
Turning to `Cc1ncsc1-c1ccc(CNC(=O)[C@@H]2C[C@@H](O)CN2C(=O)[C@@H](NC(=O)C2(F)CC2)C(C)(C)C)c(OCCN2CCN(CC[C@H](CSc3ccccc3)Nc3ccc(S(=O)(=O)NC(=O)c4csc(N5CCc6cccc(C(=O)Nc7nc8ccccc8s7)c6C5)n4)cc3S(=O)(=O)C(F)(F)F)CC2)c1` [I-167], the IC50 in the assay on MOLT-4 cells fell in the range of 0.1 to 1 µM.
As to `Cc1cc(N(CCCC(=O)N(C)CCOCC(=O)N[C@H](C(=O)N2C[C@H](O)C[C@H]2C(=O)N[C@@H](C)c2ccc(-c3scnc3C)cc2)C(C)(C)C)c2ccc(-c3cnn(CC4CCCCC4)c3C)c(C(=O)O)n2)nnc1Nc1nc2ccccc2s1` [I-156], the IC50 with MOLT-4 cells is over 3 µM.
Still for that read-out and setting: as for `Cc1ncsc1-c1ccc(CNC(=O)[C@@H]2C[C@@H](O)CN2C(=O)[C@@H](NC(=O)C2(F)CC2)C(C)(C)C)c(OCCCC(=O)N(C)CC[C@H](CSc2ccccc2)Nc2ccc(S(=O)(=O)NC(=O)c3ccc(N4CCN(CC5=C(c6ccc(Cl)cc6)CCC(C)(C)C5)CC4)cc3)cc2S(=O)(=O)C(F)(F)F)c1` [I-146], the figure is 0.1 to 1 µM.
In the case of `Cc1ncsc1-c1ccc([C@H](C)NC(=O)[C@@H]2C[C@@H](O)CN2C(=O)[C@@H](NC(=O)C2CCN(c3ccc(S(=O)(=O)NC(=O)c4nc(N5CCc6cccc(C(=O)Nc7nc8cccnc8s7)c6C5)ccc4-c4cnn(CC5CCCCC5)c4C)cc3)CC2)C(C)(C)C)cc1` [I-241], at BCL-XL [1], the greatest degradation seen (Dmax) was over 75% and the DC50 was under 0.01 µM. Also, at BCL-XL [2], the Dmax was over 75% and the DC50 was in the range of 0.01 to 0.1 µM.
In the case of `Cc1cc(N(C)c2ccc(-c3cnn(CC45CC6CC(CC(C6)C4)C5)c3C)c(C(=O)NS(=O)(=O)c3ccc(N4CCC(C(=O)N[C@H](C(=O)N5C[C@H](O)C[C@H]5C(=O)N[C@@H](C)c5ccc(-c6scnc6C)cc5)C(C)(C)C)CC4)cc3)n2)nnc1Nc1nc2ccccc2s1` [I-246], at BCL-XL [1], the greatest degradation seen (Dmax) is over 75% and the 50% degradation concentration (DC50) was under 0.01 µM. Also, at BCL-XL [2], the Dmax was over 75% and the DC50 was 0.01 to 0.1 µM.
Turning to `Cc1ncsc1-c1ccc([C@H](C)NC(=O)[C@@H]2C[C@@H](O)CN2C(=O)[C@@H](c2cc(N3CC(N4CCC(NC(=O)c5nc(N6CCc7cccc(C(=O)Nc8nc9ccccc9s8)c7C6)ccc5-c5cnn(CC6CCCCC6)c5C)CC4)C3)no2)C(C)C)cc1` [I-236], on BCL-XL [1], the Dmax is over 75% and the DC50 was under 0.01 µM. Further, at BCL-XL [2], the maximal degradation (Dmax) was in the range of 50 to 75% and the DC50 is 0.1 to 0.5 µM.
Consider `Cc1ncsc1-c1ccc([C@H](C)NC(=O)[C@@H]2C[C@@H](O)CN2C(=O)[C@@H](NC(=O)CCCC(=O)N(C)CCCC2(Cn3ncc(-c4ccc(N5CCc6cccc(C(=O)Nc7nc8ccccc8s7)c6C5)nc4C(=O)O)c3C)CCCCC2)C(C)(C)C)cc1` [I-150], for which, in the assay with MOLT-4 cells, the IC50 lay in the range of 0.1 to 1 µM.
With `Cc1ncsc1-c1ccc(CNC(=O)[C@@H]2C[C@@H](O)CN2C(=O)[C@@H](NC(=O)C2(F)CC2)C(C)(C)C)c(OCC2CCN(CC[C@H](CSc3ccccc3)Nc3ccc(S(=O)(=O)NC(=O)c4ccc(N5CCN(CC6=C(c7ccc(Cl)cc7)CCC(C)(C)C6)CC5)cc4)cc3S(=O)(=O)C(F)(F)F)CC2)c1` [I-249], the results for the Dmax at BCL-XL [1] and at BCL-XL [2] were over 75% and under 50%, respectively. Besides, the values for the DC50 on BCL-XL [1] and on BCL-XL [2] were under 0.01 µM and over 1 µM, respectively.
Regarding `Cc1ncsc1-c1ccc(CNC(=O)[C@@H]2C[C@@H](O)CN2C(=O)[C@@H](NC(=O)C2(F)CC2)C(C)(C)C)c(OCC(=O)N(C)CC[C@H](CSc2ccccc2)Nc2ccc(S(=O)(=O)NC(=O)c3ccc(N4CCN(CC5=C(c6ccc(Cl)cc6)CCC(C)(C)C5)CC4)cc3)cc2S(=O)(=O)C(F)(F)F)c1` [I-161], the half-inhibitory concentration (IC50) in the assay on MOLT-4 cells was over 3 µM.
The same measure, in the same setting: as for `Cc1ncsc1-c1ccc([C@H](C)NC(=O)[C@@H]2C[C@@H](O)CN2C(=O)[C@@H](NC(=O)CN2CCN(CCNC(=O)c3nc(N4CCc5cccc(C(=O)Nc6nc7ccccc7s6)c5C4)ccc3-c3cnn(CC4CCCCC4)c3C)CC2)C(C)(C)C)cc1` [I-164], the figure is 0.1 to 1 µM; as for `Cc1ncsc1-c1ccc([C@H](C)NC(=O)[C@@H]2C[C@@H](O)CN2C(=O)[C@@H](NC(=O)CCCCCCCCC(=O)N(C)CC#Cc2ccc(OCCCc3ccc(N4CCc5cccc(C(=O)Nc6nc7ccccc7s6)c5C4)nc3C(=O)O)c(F)c2)C(C)(C)C)cc1` [I-148], under 0.1 µM.
As to `Cc1ncsc1-c1ccc([C@H](C)NC(=O)[C@@H]2C[C@@H](O)CN2C(=O)C(c2cc(OC3CC4(C3)CN(C(=O)c3nc(N5CCc6cccc(C(=O)Nc7nc8ccccc8s7)c6C5)ccc3-c3cnn(CC5CCCCC5)c3C)C4)no2)C(C)C)cc1` (stereo partly shown) [I-237], on BCL-XL [1], the Dmax is over 75% and the DC50 is under 0.01 µM. On BCL-XL [2], the Dmax was 50 to 75% and the DC50 was 0.1 to 0.5 µM.
Regarding `Cc1ncsc1-c1ccc([C@H](C)NC(=O)[C@@H]2C[C@@H](O)CN2C(=O)[C@@H](c2cc(N3CC4(CN(c5ccc(S(=O)(=O)NC(=O)c6nc(N7CCc8cccc(C(=O)Nc9nc%10ccccc%10s9)c8C7)ccc6-c6cnn(CC7CCCCC7)c6C)cc5)C4)C3)no2)C(C)C)cc1` [I-226], at BCL-XL [1], the greatest degradation seen (Dmax) was over 75% and the half-maximal degradation concentration (DC50) was under 0.01 µM. Also, at BCL-XL [2], the Dmax fell in the range of 50 to 75% and the DC50 was 0.01 to 0.1 µM.
`Cc1ncsc1-c1ccc([C@H](C)NC(=O)[C@@H]2C[C@@H](O)CN2C(=O)[C@@H](NC(=O)N2CCC(CN3CCN(CC#Cc4ccc(OCCCc5sc(N6CCc7cccc(C(=O)Nc8nc9ccccc9s8)c7C6)nc5C(=O)O)c(F)c4)CC3)CC2)C(C)(C)C)cc1` [I-72]: the Dmax on BCL-XL [1] is under 50%. At BCL-XL [2], the maximal degradation (Dmax) is under 50% and the DC50 was 0.01 to 0.1 µM.
As to `Cc1ncsc1-c1ccc([C@H](C)NC(=O)[C@@H]2C[C@@H](O)CN2C(=O)[C@@H](NC(=O)N2CC3(CC(N4CCN(C(=O)c5nc(N6CCc7cccc(C(=O)Nc8nc9ccccc9s8)c7C6)ccc5-c5cnn(CC6CCCCC6)c5C)CC4)C3)C2)C(C)(C)C)cc1` [I-248], the Dmax was 50 to 75% on BCL-XL [1] and under 50% at BCL-XL [2]. For the same compound, the DC50 on BCL-XL [1] is 0.01 to 0.1 µM; at BCL-XL [2] it was over 1 µM.
Taken in the same sequence, the figures for `Cc1ncsc1-c1ccc([C@H](C)NC(=O)[C@@H]2C[C@@H](O)CN2C(=O)C(c2cc(OC3CCN(CCNC(=O)c4nc(N5CCc6cccc(C(=O)Nc7nc8ccccc8s7)c6C5)ccc4-c4cnn(CC5CCCCC5)c4C)CC3)no2)C(C)C)cc1` (stereo partly shown) [I-234] were 50 to 75%, under 50%, 0.01 to 0.1 µM and over 1 µM.
The matching figures for `C#Cc1ccc([C@H](CO)NC(=O)[C@@H]2C[C@@H](O)CN2C(=O)[C@@H](NC(=O)C2CCN(c3ccc(S(=O)(=O)NC(=O)c4nc(N5CCc6cccc(C(=O)Nc7nc8ccccc8s7)c6C5)ccc4-c4cnn(CC5CCCCC5)c4C)cc3)CC2)C(C)(C)C)cc1` [I-242]: over 75%, over 75%, under 0.01 µM and 0.01 to 0.1 µM.
On to `Cc1cc(N2CCC(C(=O)N[C@H](C(=O)N3C[C@H](O)C[C@H]3C(=O)N[C@@H](C)c3ccc(-c4scnc4C)cc3)C(C)(C)C)CC2)ccc1S(=O)(=O)NC(=O)c1nc(N2CCc3cccc(C(=O)Nc4nc5ccccc5s4)c3C2)ccc1-c1cnn(CC2CCCCC2)c1C` [I-275], for which the Dmax on BCL-XL [1] and on BCL-XL [2] was over 75% throughout. Also, the DC50 at BCL-XL [1] is under 0.01 µM; at BCL-XL [2] it was 0.01 to 0.1 µM.
As to `Cc1ncsc1-c1ccc([C@H](C)NC(=O)[C@@H]2C[C@@H](O)CN2C(=O)[C@@H](NC(=O)CCCC(=O)N(C)CCN(C)c2cc3c(c(C(=O)Nc4nc5ccccc5s4)c2)CN(c2ccc(-c4cnn(CC5CCCCC5)c4C)c(C(=O)O)n2)CC3)C(C)(C)C)cc1` [I-110], at BCL-XL [1], the Dmax was under 50% and the DC50 was over 1 µM.
